Data from patent US20080220416A1, “Compositions for Inhibiting Cell Growth and Inducing Apoptosis in Cancer Cells and Methods of Use Thereof” (THE BOARD OF TRUSTEES OF THE UNIVERSITY OF ILLINOI, priority 2004, published 2008).
Entries after “also recorded” stand apart in the source; their conditions may differ. Square brackets hold non-standard residues; d marks the D form. Peptide text beside a SMILES is read from it. * marks the point of attachment. Nle = CCCC[C@H](N)C(=O)O; Cbz = O=C(OCc1ccccc1)*

Key:
[1] = test system: CaSki human cervical cancer cells; experiment: Apoptosis of CaSki cells (Annexin V flow cytometry, caspase 3 Western blot); format: cell-based
Procedure: For the apoptosis measurement assay, the transformed CaSki human cervical cancer cells were treated with DMSO, or 25 μM, 50 μM or 100 μM cisplatin for 24 hours. After cisplatin treatment, the cells were collected and stained with fluorescein-conjugated annexin V and propidium iodide, using the APO TARGET Annexin-V FITC Apoptosis Kit (BioSource International, Inc., Camarillo, Calif.) according to the manufacturer's instructions. After the staining, the cells were sorted by flow cytometry with a FACScan instrument (Becton-Dickinson), Annexin-V positive stained cells were counted as apoptotic cells. Cells that were propidium iodide positive but annexin V negative were not counted as apoptotic cells.
To determine whether z-Leu-Leu-Nle-CHO induces cell death via apoptosis, CaSki cells were treated with various concentrations of z-Leu-Leu-Nle-CHO for 18 h and then either stained with Annexin-V-FITC as described above, or subject to Western blot analysis using antibody to both the pro-enzyme and active form of caspase-3 (Santa Cruz Biotechnology, Santa Cruz, Calif.) as described above.

MDA-MB231 cells = experiment: Cell cycle distribution of MDA-MB231 cells by flow cytometry; format: cell-based, human
Procedure: Cell cycle analysis was performed to further study the effects of inhibition of Notch signaling in breast cancer cells. MDA-MB231 cells were treated overnight with 0-10 μM z-Leu-Leu-Nle-CHO prior to cell cycle distribution analysis by flow cytometry. Alternatively, MDA-MB231 cells were transfected with Notch-1, Notch-4 or control siRNA as described above in Example 15. For cell cycle distribution analysis by flow cytometry, z-Leu-Leu-Nle-CHO- or siRNA-treated cells (10^6) were pelleted and washed twice in PBS. Cells were then fixed in 80% methanol and stored at −20° C. until use. Fixed cells were pelleted and washed twice in PBS, and resuspended in 50 μl PI:PBS solution (50 μg/ml PI). After RNase A (100 μg/ml) treatment at 37° C. for an hour, cells were analyzed by flow cytometry using a FACScalibur instrument.

NOXA = experiment: Western blot of pro-apoptotic proteins in normal melanocytes treated with z-Leu-Leu-Nle-CHO; format: cell-based, human; settings: data not shown
RJ002L melanoma cells = experiment: Bortezomib in RJ002L melanoma cells: sub-G0 DNA content by FACS and kinetic analysis; format: cell-based, human
Procedure: To assess the effect of proteasome inhibitors on the cell lines, the cells were grown in suitable culture media as described above. Highly proliferating cells (i.e., cells that had reached approximately 30% confluency) were exposed to the inhibitors as described below. The culture media was replenished with media containing proteasome inhibitors at various concentrations and the cells were incubated for 24 hours prior to harvesting the cells for further analysis.
Following treatment with the proteasome inhibitors, the melanoma and melanocyte cell cultures were assayed for apoptotic cells using the APO TARGET Annexin V FITC staining kit (Biosource, Camarillo, Calif.) according to the manufacturer's instructions followed by flow cytometric analysis using FACScaliber (Becton Dickinson, Palo Alto, Calif.) as described in Qin, J. et al., 2001, Nat Med 7: 385-386. In some cases, cell cycle and apoptosis analysis was measured using propidium iodide staining and flow cytometry as described. Cells with DNA content less than the G0 amount of untreated cells were considered apoptotic. For cell analysis, DNA histograms were analyzed using MultiCycle for Windows (Phoenix Flow Systems, San Diego, Calif.) as described in Denning, M. F. et al., 1998, J Biol Chem 273: 29995-30002.
The ability of bortezomib to induce apoptosis in RJ002L cells was assayed by kinetic analysis. RJ002L cells were incubated with 1.0 μM bortezomib for 24 hours. At various time points during the 24 hours, the cells were assayed for apoptosis using APO TARGET Annexin V-FITC staining kits (Biosource, Camerillo, Calif.) according to manufacturer's instructions. The relative percentage of cells undergoing apoptosis was quantified by flow cytometric analysis using FACSCaliber (Becton Dickinson, Palo Alto, Calif.) as described in Qin J et al., 2004, Mol Cancer Ther 3:895-902.

CaSki cells = experiment: LY411,575 combinations in CaSki cells, growth inhibition and isobologram analysis; format: cell-based, human; settings: CaSki
Procedure: To evaluate the possibility that inhibition of Notch signaling may sensitize advanced cervical cancers to the effect of cisplatin chemotherapy because Notch-1 protects these cells from apoptosis through the AKT and NF-κB pathways, a non-peptide, benzodiazepine gamma-secretase inhibitor, LY411,575 (Wong et al., 2004, J Biol. Chem. 279:12876-82) was tested in combination with a AKT inhibitor (AKT inhibitor I) or a proteasome inhibitor (MG-132) for effects on cell growth. The latter class of drugs is thought to act primarily by preventing NF-KB activation (Adams, J, 2002, Curr Opin Oncol 14:628-634; Richardson, P, 2003, Cancer Treat Rev 29 Suppl 1:33-39) caused by proteasome-mediated degradation of IκB.
To determine whether LY411,575 potentiates the effect of AKT inhibitor I or MG-132, CaSki cells were treated with (a) LY411,575 (6.25 μM to 50 μM) and AKT inhibitor 1 (0.5 μM to 75 μM), or (b) LY411,575 (1.5 μM to 200 μM) and MG-132 (0.05 μM to 0.2). Following the drug treatment, the cells were tested for growth inhibition as described above. LY411,575 was synthesized according to methods well known in the art (e.g., see WO-09828268, which is incorporated by reference), and AKT inhibitor I and MG-132 were purchased from Calbiochem.
The IC50 values of LY411,575 in the presence of various concentrations of AKT inhibitor I or MG-132 were measured. […]

For `CCCC[C@@H](C=O)NC(=O)[C@H](CC(C)C)NC(=O)[C@H](CC(C)C)NC(=O)OCc1ccccc1` [z-Leu-Leu-Nle-CHO, N-benzyloxycarbonyl-leucyl-leucyl-norleucinal] (Cbz-Leu-Leu-[Nle]-aldehyde), the “caspase 3 activation” value ([1]; 18 h) was “dose-dependent caspase 3 activation”, the “mode of cell death (Annexin V flow cytometry)” value ([1]; 18 h) was “primarily apoptotic” and the cell cycle distribution (MDA-MB231 cells; 0-10 μM overnight) was “accumulation of cells in the G2/M stage of the cell cycle”. The “induction of pro-apoptotic proteins (Bak, Bim, NOXA)” value (NOXA) was “did not induce any of the pro-apoptotic proteins; also recorded: did not induce NOXA in normal melanocytes”.
For `CC(C)C[C@H](NC(=O)[C@H](Cc1ccccc1)NC(=O)c1cnccn1)B(O)O` [bortezomib, N-(2-pyrazine)carbonyl-L-phenylalanine-L-leucine boronic acid], the “cells with sub-G0 DNA content by FACS analysis” value (RJ002L melanoma cells; 0.01 μM, 24 hours) was 2%, the apoptotic cells (RJ002L melanoma cells; 0.1 μM, 24 hours) was 20% and the apoptotic cells (RJ002L melanoma cells; 1 μM or 10 μM, 24 hours) was 29-30%. For the same molecule, the “kinetic analysis of apoptosis” value (RJ002L melanoma cells; 1.0 μM, up to 24 hours) was “prominent apoptosis was detected at 18- and 24-hr time points” and the “increase in apoptotic cells, 0.1 μM versus 0.01 μM” value (RJ002L melanoma cells; 24 hours) was 10 fold.
For “5′-AAGTGTCTGAGGCCAGCAAGA-3′ [Notch-1 siRNA]”, the “effect on cisplatin-induced apoptosis” value ([1]; cisplatin 25, 50 or 100 μM for 24 hours) was “significantly enhances cisplatin-induced apoptosis” and the cell cycle distribution (MDA-MB231 cells; siRNA transfection) was “accumulation of cells in G2/M was maximal at 24 hours”.
For `CC(C)C[C@@H](C=O)NC(=O)[C@H](CC(C)C)NC(=O)[C@H](CC(C)C)NC(=O)OCc1ccccc1` [MG-132, benzoxycarbonyl-Leucyl-Leucyl-Leucyl-aldehyde] (Cbz-Leu-Leu-Leu-aldehyde), the “combination with LY411,575 in cytotoxicity assays / isobologram” value (CaSki cells) was “striking synergism”.
